Results reported in patent US20070142635A1, “Process for preparing hexahydropyrimido[1,2-a]azepine-2-carboxylates and related compounds” (priority 2003, published 2007).

Target: HIV integrase (Human immunodeficiency virus type 1 group M subtype B, UniProt P04585)
Experiment: assay described in WO 02/30930 for inhibition of strand transfer in HIV integrase
Type: biochemical
Description: As is clear from the foregoing description, compounds embraced by Formula X or XI and precursors thereof are useful as intermediates in the preparation of Compounds XII, XIII and XIV, which are HIV integrase inhibitors useful, inter alia, in treating HIV infection.

## CN(C)C(=O)C(=O)N(C)C1CCCCn2c1nc(C(=O)NCc1ccc(F)cc1)c(O)c2=O (racemic) [Compound 14, N-(2-{[(4-fluorobenzyl)amino]carbonyl}-3-hydroxY4-oxo-4,6,7,8,9,10-hexahydropyrnidor[1,2-α]azepin-10-yl)-N,N′,N′-trimethylethanediamide]
  inhibition of strand transfer in HIV integrase: exhibited activity
